Source: paper PMC2910439, “Imperatoxin A, a Cell-Penetrating Peptide from Scorpion Venom, as a Probe of Ca^2+-Release Channels/Ryanodine Receptors” (Pharmaceuticals, 2010)
Starred links: 1 amine or outer side, 2 acyl side, 3 side chain; linkers in the order of their positions; H or OH if unused. Positions of bridges follow the written chain, without caps; N, C: chain ends. Non-standard residues stand in square brackets, D forms with d. Residues, ends and D or L forms follow the SMILES beside them. *: point of attachment. X1 = CC1CC(C)(C)Nc2c1cc1c(c2S(=O)(=O)O)Oc2c(S(=O)(=O)O)c3c(cc2=C1c1c(Cl)c(SCC(=O)*)c(Cl)c(Cl)c1C(=O)O)C(C)CC(C)(C)N=3; X2 = N=C(CCCSC1CC(=O)N(CCCCCN[*:1])C1=O)NCC(=O)[*:2]

Columns and labels:
[1] = tested on: intact mouse ventricular myocytes; assay type: cell-based; settings: for speed of penetration into living isolated cardiomyocytes: conclusion, native toxin judged by [Ca2+]i transients, derivative by fluorescence
Method: To visualize the cell-penetrating properties of Alexa-IpTxa in intact cells, ventricular cardiomyocytes were enzymatically isolated and incubated with 5 μM Alexa-IpTxa and Alexa 488-Wheat Germ Agglutinin (10 μg/mL) for 30 min at room temperature (see Experimental Methods). The distribution of Alexa-546-IpTxa (red fluorescence) and WAG-Alexa-488 (green fluorescence) were monitored in living, unfixed cardiac myocytes.
We next sought to establish a time-course for the translocation of Alexa-IpTxa across the plasma membrane of intact cardiomyocytes. […] Clear intracellular localization of fluorescence is seen only with Alexa-IpTxa, as early as 10 min after incubation (panel D), but more intensely after 20 min incubation (panel F). In order to refine the time-course of Alexa-IpTxa penetration into cardiomyocytes, we continuously monitored the evolution of fluorescence in 3 regions of interest (ROI) corresponding to the plasma membrane and adjacent cytosol (ROI-1), the bulk cytosol (ROI-2), and the nucleus (ROI-3). A fourth ROI (not shown) was defined to monitor changes in fluorescence of the bath solution. Animations of IpTxa translocation into cells are available online as supplementary data (URL: http://www.mdpi.com/1424-8247/3/4/1093/S1).
Isolated cardiac myocytes were incubated with Alexa-546-IpTxa (5 μM) with or without WGA-Alexa 488 (10 μg/mL) for 30 min in the dark. Images were acquired with a BioRad MR-1 confocal microscope coupled to a Nikon Disphot microscope and an X60 oil immersion objective using the Lasersharp 2000 software. Confocal images are 0.25 μm sections. All experiments were performed at room temperature.
Ventricular myocytes were imaged with a Zeiss META 5 confocal microscope equipped with laser scanning. Three regions of interest were delineated corresponding to the plasma membrane (ROI-1), […]. Changes in fluorescence intensity in these regions were monitored and analyzed. Alexa-546-IpTxa fluorescence was excited with the 488 nm line of an argon laser, and emitted light was filtered by a LP 585 filter. Alexa-546-IpTxa was perfused at a concentration of 1 μM. Scans were taken every 3 seconds for a total of 351 seconds. After the time series, perfusion was turned off and the cell remained in the bath for 30 minutes. Scans were taken at 9 minutes and 30 minutes.

[2] = tested on: intact mouse ventricular cardiomyocytes; assay: Ca2+ imaging of field-stimulated ventricular myocytes perfused with toxin; assay type: cell-based
Method: IpTxa’s ability to induce subconducting states in single channels and to enhance binding of [^3H]ryanodine to SR vesicles distinguish it as a RyR agonist. […] Ventricular cardiomyocytes were enzymatically digested, loaded with the Ca^2+ indicator Fluo-3, and placed into the perfusion chamber of a Zeiss confocal microscope (see Experimental Methods). Cells were field-stimulated under Normal Tyrode (NT) solution, and Ca^2+ transients were recorded in line-scan mode (control). Perfusion was then changed to NT + IpTxa (in the range of 100 nM-30 µM), and transients were recorded in the presence of toxin (+IpTxa). We hypothesized that if IpTxa penetrates cardiomyocytes to reach its intracellular target, it would alter the shape of [Ca^2+]i transients elicited with field-stimulation. As expected, changes in [Ca^2+]i transients were evident within seconds of perfusion with the toxin. […] For this experiment, cells were paced at 0.5 Hz under NT solution (see Experimental Methods). Cells were scanned first without IpTxa (control transients, Figure 1A), and then IpTxa was perfused and a second scan was taken immediately afterward (Figure 1B).
Mouse ventricular myocytes were isolated by collagenase digestion of perfused mouse hearts using the method of Mitra and Morad with modification addressed by Wolska and Solaro [23]. Mice were heparinized and anesthetized […] before removal and hanging of the heart. Cells were suspended in Tyrode solution ((mM) 130 NaCl, 5.4 KCl, 0.4 NaH2PO4, 0.5 MgCl2, 25 HEPES, 22 glucose, 0.01 μg/mL insulin, pH7.4 with NaOH) and kept at room temperature until used within 6 h.
Changes in cytosolic [Ca^2+] using the Ca^2+-dependent fluorescent dye Fluo-3 AM. Fluo-3 AM was added to ventricular myocytes in Tyrodes solution (final concentration 10 μM) and incubated at room temperature for 30 minutes, after which the cells were washed and resuspended in Tyrodes solution. Fluorescence changes were monitored with a Zeiss META 5 line-scanning confocal microscope. Fluo-3 was excited at 488nm, and emissions were collected at 500-570 nm. Cells were perfused with normal Tyrodes and field-stimulated at 1 Hz. After recording control transients, synthetic, unmodified IpTxa was perfused at concentrations of 10 μM, 1 μM, and 100 nM for 10 seconds. To estimate the calcium load of the sarcoplasmic reticulum, we stopped stimulations and performed a rapid application of 10 mM caffeine to elicit complete Ca^2+ release.

[3] = tested on: isolated rat ventricular myocytes; settings: 0.5 mM; followed by steady decline to a new lower steady-state; cited from earlier work
Method: At lower concentrations (100-300 nM), IpTxa perfusion elicited several discernible stimulatory effects in most cells.

SMILES: CC1CC(C)(C)Nc2c1cc1c(c2S(=O)(=O)O)Oc2c(S(=O)(=O)O)c3c(cc2=C1c1c(Cl)c(SCC(=O)NCCCCCN2C(=O)C=CC2=O)c(Cl)c(Cl)c1C(=O)O)C(C)CC(C)(C)N=3 (stereo not drawn) [Alexa-maleimide, Alexa-Fluor-546-C5-maleimide, reference compound]
- membrane permeability (negative control) ([1]; as stated for the fluorophore reagent): membrane-impermeable

SMILES: CC(C)C[C@@H]1NC(=O)[C@H](Cc2c[nH]cn2)NC(=O)[C@@H]2CCCN2C(=O)[C@H](CC(C)C)NC(=O)[C@@H](NC(=O)[C@H](CC(=O)O)NC(=O)CNC(=N)CCCSC2CC(=O)N(CCCCCNC(=O)CSc3c(Cl)c(Cl)c(C(=O)O)c(C4=c5cc6c(c(S(=O)(=O)O)c5Oc5c4cc4c(c5S(=O)(=O)O)NC(C)(C)CC4C)=NC(C)(C)CC6C)c3Cl)C2=O)CSSC[C@@H]2NC(=O)[C@@H]3CSSC[C@@H](C(=O)N[C@@H](CCCNC(=N)N)C(=O)O)NC(=O)[C@H](CCCNC(=N)N)NC(=O)[C@H](CCCCN)NC(=O)[C@H](CCC(=O)O)NC(=O)[C@H](C)NC(=O)[C@H](CC(N)=O)NC(=O)[C@H]([C@@H](C)O)NC(=O)CNC(=O)[C@H](CCCNC(=N)N)NC(=O)[C@H](CCCNC(=N)N)NC(=O)[C@H](CCCCN)NC(=O)[C@H](CSSC[C@H](NC(=O)[C@H](CCCNC(=N)N)NC(=O)[C@H](CCCCN)NC1=O)C(=O)N[C@@H](CCCCN)C(=O)N[C@@H](C)C(=O)N[C@@H](CC(=O)O)C(=O)N[C@@H](CC(N)=O)C(=O)N[C@@H](CC(=O)O)C(=O)N3)NC(=O)[C@H](CCCCN)NC(=O)[C@H](CCCCN)NC(=O)CNC2=O (stereo partly drawn) [Alexa-IpTxa] (X1-[X2]DCLPHLKRCKADNDCCGKKCKRRGTNAEKRCR-OH; disulfide 3-17, 10-21, 16-32; C-terminus assumed)
- time at which clear intracellular localization of fluorescence is seen ([1]; 1 μM perfusion, confocal, more intense at later time): ≤ 10 min
- speed of penetration into living isolated cardiomyocytes [1]: slower (minutes)

SMILES: CC(C)C[C@@H]1NC(=O)[C@H](Cc2c[nH]cn2)NC(=O)[C@@H]2CCCN2C(=O)[C@H](CC(C)C)NC(=O)[C@@H](NC(=O)[C@H](CC(=O)O)NC(=O)CN)CSSC[C@@H]2NC(=O)[C@@H]3CSSC[C@@H](C(=O)N[C@@H](CCCNC(=N)N)C(=O)O)NC(=O)[C@H](CCCNC(=N)N)NC(=O)[C@H](CCCCN)NC(=O)[C@H](CCC(=O)O)NC(=O)[C@H](C)NC(=O)[C@H](CC(N)=O)NC(=O)[C@H]([C@@H](C)O)NC(=O)CNC(=O)[C@H](CCCNC(=N)N)NC(=O)[C@H](CCCNC(=N)N)NC(=O)[C@H](CCCCN)NC(=O)[C@H](CSSC[C@H](NC(=O)[C@H](CCCNC(=N)N)NC(=O)[C@H](CCCCN)NC1=O)C(=O)N[C@@H](CCCCN)C(=O)N[C@@H](C)C(=O)N[C@@H](CC(=O)O)C(=O)N[C@@H](CC(N)=O)C(=O)N[C@@H](CC(=O)O)C(=O)N3)NC(=O)[C@H](CCCCN)NC(=O)[C@H](CCCCN)NC(=O)CNC2=O [IpTxa, imperatoxin A] (H-GDCLPHLKRCKADNDCCGKKCKRRGTNAEKRCR-OH; disulfide 3-17, 10-21, 16-32 (inferred); N-terminus and C-terminus assumed)
- speed of penetration into living isolated cardiomyocytes [1]: rapid (few seconds)
- effect on diastolic [Ca2+]i ([2]; 100 nM to 3 µM perfused, in some cells): elevated diastolic [Ca^2+]i
- effect on [Ca2+]i transients at high concentration ([2]; 30 µM perfused in normal Tyrode, cells paced at 0.5 Hz, Fluo indicator, line-scan confocal, representative of three of four experiments): complete cessation of [Ca^2+]i transients
- effect on [Ca2+]i transient amplitude at lower concentrations ([2]; 100-300 nM perfused, followed by gradual diminution to a new, lower steady-state, representative of 12 of 36 experiments): significant increase in the amplitude of the [Ca^2+]i transient
- lag time of effects on intracellular Ca2+ signaling after perfusion ([2]; perfusion on intact cells): 2 to 3 s

SMILES: Cn1c(=O)c2c(ncn2C)n(C)c1=O [caffeine]
- effect on Ca2+ transient amplitude [3]: brief increase in the amplitude of the Ca^2+ transient
